Patent EP4613259A1, “PHARMACEUTICAL, DERMATOLOGICAL OR COSMETIC COMPOUNDS AND COMPOSITIONS FOR REDUCING MELANIN SYNTHESIS, STIMULATING TYPE I COLLAGEN PRODUCTION, SKIN DEPIGMENTATION AND/OR PROMOTING A SKIN ANTI-AGING EFFECT IN AN INDIVIDUAL OR ANIMAL, USES AND METHODS” (Chemyunion Ltda, priority 2022, dated 2024)
Where a SMILES comes first, the peptide text is derived from it. The star is where a group is joined. Palmitoyl = CCCCCCCCCCCCCCCC(=O)*

Key:
[1] = test system: melanin synthesis in human skin fragments; experiment: Inhibition of melanin synthesis in ex vivo human skin fragments (Fontana Masson staining, semi-quantification); format: cell-based; conditions: skin explants (n=5), 72h
Description: Example 1: Evaluation of inhibition of melanin synthesis in human skin fragments.
Skin explants (n=5), obtained from a surgical procedure performed by an ophthalmological plastic surgery clinic, were treated for 72h with a formulation containing the peptide SEQ ID No. 1 (Pal-Gln-His-Trp-Val-OH), (at 50 ppm or 100 ppm) and with the same formulation without the addition of the peptide (placebo).
After incubation with the test products as described above, the skin fragments were fixed in 4% paraformaldehyde (pH 7.4) for 24 hours. After fixation, the material was transferred to 30% sucrose solution for cryopreservation and then embedded in tissue freezing medium, followed by serial sections of approximately 10 µm thickness made by cryostat and collected directly on silanized glass slides. Then, the skin sections were stained by the Fontana Masson technique.
Subsequently, the slides were analyzed and recorded using an optical microscope coupled to a camera.

[2] = test system: type I collagen; experiment: Stimulation of type I collagen synthesis in ex vivo human skin fragments (immunofluorescence, semi-quantification); format: cell-based; conditions: skin explants (n=5)
Description: Example 2: Evaluation of collagen synthesis stimulation in human skin fragments.
Skin explants (n=5) obtained from a surgical procedure performed by the ophthalmologic plastic surgery clinic were treated for 72 h with a formulation containing the peptide SEQ ID No. 1 ( Pal - Gln - His- Trp - Val-OH ) (at 50 ppm or 100 ppm ) and with the same formulation without the addition of the peptide (placebo). After incubation with the test products as described above, the skin fragments were fixed in 4% paraformaldehyde (pH 7.4) for 24 h. After fixation, the material was transferred to a 30% sucrose solution for cryopreservation and then embedded in tissue freezing medium, followed by serial sections of approximately 10 µm thickness made by cryostat and collected directly on silanized glass slides. The skin sections were then subjected to the specific labeling process for type I collagen for subsequent immunofluorescence analysis; the records were obtained using a fluorescence optical microscope coupled to a photographic camera.

Q: `CCCCCCCCCCCCCCCC(=O)N[C@@H](CCC(N)=O)C(=O)N[C@@H](Cc1cnc[nH]1)C(=O)N[C@@H](Cc1c[nH]c2ccccc12)C(=O)N[C@H](C(=O)O)C(C)C` [SEQ ID No. 1, Pal-Gln-His-Trp-Val-OH] (Palmitoyl-QHWV-OH) was tested. Which “reduces melanin production compared to the placebo group” value ([1]; 50 ppm peptide in formulation) did it give?
A: 66%

Q: And the “inhibits pigment synthesis compared to the levels observed in the placebo group” value ([1]; 100 ppm peptide in formulation)?
A: 61%

Q: What about the “stimulated collagen I production compared to the placebo group” value ([2]; 50 ppm peptide in formulation, 72h) of the same compound?
A: 63%

Q: What about the “increase in protein synthesis compared to the levels observed in the placebo group” value ([2]; 100 ppm peptide in formulation, 72 h, protein = type I collagen) of the same compound?
A: 71%
